Assay results taken from patent US20040072206A1, “Method for identifying modulators of transcription” (priority 2000, published 2004).

Experiments:
[1] = target: T1, bacterial RNA polymerase (Bacillus subtilis, UniProt P37870+P37871); assay: Dual reporter assay in strain X (xylose-induced lacZ and T7 RNAP-driven gus reporters); format: cell-based; conditions: 30 min incubation
T1 construct: endogenous in cells; host or cells: Bacillus subtilis strain X (derivative of strain 168)
Text: The strain X is a derivative of the standard laboratory strain of Bacillus subtilis 168. It has been modified in three ways.
1. It carries a xylose-inducible promoter driving transcription of the well known reporter gene lacZ, encoding the enzyme β-galactosidase. The reporter gene is silent or expressed at low levels in the absence of xylose because the endogenous XylR protein binds to the promoter region, reducing the ability of RNAP to initiate transcription. On addition of xylose or similar sugar, the repressor leaves the promoter allowing RNAP to transcribe the gene strongly, resulting in increased synthesis of β-galactosidase. A simple colourigenic substrate, ONPG was used to detect the formation of the enzyme.
2. Strain X also carries a second reporter gene comprising a promoter recognised by the RNAP of bacteriophage T7. This promoter has been modified so as to be recognised and repressed by the same XylR repressor as controls the first reporter. Consequently, the promoter cannot be utilised by T7 RNAP unless xylose is present. […]
The assay was done by growing a culture of strain X in the absence of xylose and then dispensing aliquots of culture into the wells of a microtitre plate. […] The plate was incubated for 30 min to allow accumulation of the two reporter enzymes, then the cells were lysed and the two enzyme activities were measured.

[2] = target: T2, T7 RNAP (Escherichia phage T7, UniProt P00573); assay: Dual reporter assay in strain PL37: control reporter PT7X-gus; format: cell-based, bacteriophage T7; conditions: strain PL37, FIG. 5
T2 construct: expressed in transfected cells; host or cells: Bacillus subtilis PL37, with Pspac-rpoT7 integrated in the chromosome and induced by IPTG
T2 sequence (P00573 whole entry): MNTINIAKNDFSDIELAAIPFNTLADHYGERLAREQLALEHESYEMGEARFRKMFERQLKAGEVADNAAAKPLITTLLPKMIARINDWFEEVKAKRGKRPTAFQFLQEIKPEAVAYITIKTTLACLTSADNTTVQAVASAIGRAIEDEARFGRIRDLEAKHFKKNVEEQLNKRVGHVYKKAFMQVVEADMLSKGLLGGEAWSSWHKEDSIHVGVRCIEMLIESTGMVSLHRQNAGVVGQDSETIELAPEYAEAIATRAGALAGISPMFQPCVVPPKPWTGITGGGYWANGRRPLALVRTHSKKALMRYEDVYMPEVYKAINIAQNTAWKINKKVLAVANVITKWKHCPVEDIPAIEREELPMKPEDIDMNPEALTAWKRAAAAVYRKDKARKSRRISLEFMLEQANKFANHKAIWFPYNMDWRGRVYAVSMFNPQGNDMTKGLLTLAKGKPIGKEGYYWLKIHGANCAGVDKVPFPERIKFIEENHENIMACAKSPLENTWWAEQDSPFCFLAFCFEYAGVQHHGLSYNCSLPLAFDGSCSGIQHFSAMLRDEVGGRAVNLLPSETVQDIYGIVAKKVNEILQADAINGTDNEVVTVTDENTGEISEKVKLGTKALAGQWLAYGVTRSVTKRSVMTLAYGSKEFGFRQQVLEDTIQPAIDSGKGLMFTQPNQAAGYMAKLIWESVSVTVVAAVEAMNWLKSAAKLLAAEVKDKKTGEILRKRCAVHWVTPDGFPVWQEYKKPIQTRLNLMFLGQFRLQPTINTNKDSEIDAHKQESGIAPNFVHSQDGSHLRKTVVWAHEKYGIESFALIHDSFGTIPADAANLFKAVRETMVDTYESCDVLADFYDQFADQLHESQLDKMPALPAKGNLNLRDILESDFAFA
Procedure: (§1) 20 known antibiotics were tested at a range of concentrations to determine their effect on test and control reporters within the assay. […] Cultures of PL37 grown in PAB, were diluted to 0.05 A600 and then grown for 2 hours at 37° C. in PAB supplemented with 0.02 mM IPTG. Cells were pelleted and frozen. They were later resuspended and diluted in PAB supplemented with 0.02 mM IPTG and grown at 37° C. to early exponential phase. Cultures were then diluted to 0.05 A600 in PAB and added in 20 μl volumes to wells of microtitre plates containing 20 μl volumes of the antibiotics. Plates were incubated at 37° C. for two hours, and assay mix was added to detect reporter enzyme activity (see below).
(§2) Following the addition of 160 μl of assay mix (1.3×Z buffer containing 94 μg/ml lysozyme, 8.4 μg/ml 4-methylumbelliferyl-β-D-galactoside, 0.53 μg/ml resorufin-β-D-glucuronide and 0.05% Triton) to each well, the microtitre plate was incubated in the dark for 30 mini or 1 hour at room temperature. Fluorescence was read on a BMG FLUOstar Galaxy at excitation/emission 355/460 nm and 544/590 nm, respectively, with gains set at 5 and 25, respectively.

[3] = target: T3, B. subtilis RNAP (Bacillus subtilis, UniProt P37870+P37871); assay: Dual reporter assay in strain PL37: test reporter Pxyl-lacZ and ratio of control to test reporter (RES:MUG); format: cell-based; conditions: for Ratio of the control reporter (RES): test reporter (MUG): strain PL37, DMSO control […]
T3 construct: endogenous in cells; host or cells: Bacillus subtilis strain PL37 (built from strain 168)
T3 sequence (P37871 whole entry): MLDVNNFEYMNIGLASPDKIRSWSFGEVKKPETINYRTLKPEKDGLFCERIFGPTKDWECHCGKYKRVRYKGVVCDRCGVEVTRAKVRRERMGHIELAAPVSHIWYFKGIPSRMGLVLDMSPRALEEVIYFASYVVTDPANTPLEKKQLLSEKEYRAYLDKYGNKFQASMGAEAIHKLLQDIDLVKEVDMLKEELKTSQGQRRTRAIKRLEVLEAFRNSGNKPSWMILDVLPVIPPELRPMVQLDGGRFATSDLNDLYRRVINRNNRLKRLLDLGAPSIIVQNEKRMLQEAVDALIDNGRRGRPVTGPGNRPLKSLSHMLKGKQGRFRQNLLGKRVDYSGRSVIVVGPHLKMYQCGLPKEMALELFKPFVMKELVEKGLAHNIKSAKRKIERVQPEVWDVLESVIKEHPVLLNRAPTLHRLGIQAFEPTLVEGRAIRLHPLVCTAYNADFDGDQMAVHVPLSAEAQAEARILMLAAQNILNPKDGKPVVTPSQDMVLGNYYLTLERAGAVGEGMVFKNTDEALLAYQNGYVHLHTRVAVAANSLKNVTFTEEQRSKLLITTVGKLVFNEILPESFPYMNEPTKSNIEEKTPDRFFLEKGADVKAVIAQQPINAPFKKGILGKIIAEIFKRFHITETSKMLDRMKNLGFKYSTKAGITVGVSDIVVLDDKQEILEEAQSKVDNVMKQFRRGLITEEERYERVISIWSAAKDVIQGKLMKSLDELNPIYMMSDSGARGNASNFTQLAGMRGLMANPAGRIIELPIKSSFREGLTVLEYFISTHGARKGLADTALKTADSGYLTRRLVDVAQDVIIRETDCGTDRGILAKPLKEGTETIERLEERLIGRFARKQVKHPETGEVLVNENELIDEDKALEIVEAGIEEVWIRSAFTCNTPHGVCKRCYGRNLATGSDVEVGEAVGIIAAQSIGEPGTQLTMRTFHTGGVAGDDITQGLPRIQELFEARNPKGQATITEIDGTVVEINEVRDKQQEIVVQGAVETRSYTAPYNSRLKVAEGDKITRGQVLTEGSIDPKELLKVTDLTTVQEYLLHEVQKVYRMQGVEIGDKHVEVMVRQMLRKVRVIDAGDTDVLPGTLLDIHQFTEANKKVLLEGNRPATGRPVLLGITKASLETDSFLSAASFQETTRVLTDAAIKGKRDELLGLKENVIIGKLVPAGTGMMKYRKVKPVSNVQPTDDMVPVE
T3 sequence (P20429 whole entry, further chain): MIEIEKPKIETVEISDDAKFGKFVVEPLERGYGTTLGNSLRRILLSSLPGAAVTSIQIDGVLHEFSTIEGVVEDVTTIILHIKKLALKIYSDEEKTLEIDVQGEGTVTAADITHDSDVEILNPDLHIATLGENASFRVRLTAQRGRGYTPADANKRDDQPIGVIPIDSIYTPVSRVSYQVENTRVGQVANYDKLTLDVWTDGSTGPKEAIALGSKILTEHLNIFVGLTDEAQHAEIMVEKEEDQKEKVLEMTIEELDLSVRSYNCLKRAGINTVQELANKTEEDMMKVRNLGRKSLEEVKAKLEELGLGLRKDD
T3 sequence (O35011 whole entry, further chain): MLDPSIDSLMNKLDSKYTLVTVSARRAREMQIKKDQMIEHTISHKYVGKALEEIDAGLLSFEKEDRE
T3 sequence (P37870 whole entry): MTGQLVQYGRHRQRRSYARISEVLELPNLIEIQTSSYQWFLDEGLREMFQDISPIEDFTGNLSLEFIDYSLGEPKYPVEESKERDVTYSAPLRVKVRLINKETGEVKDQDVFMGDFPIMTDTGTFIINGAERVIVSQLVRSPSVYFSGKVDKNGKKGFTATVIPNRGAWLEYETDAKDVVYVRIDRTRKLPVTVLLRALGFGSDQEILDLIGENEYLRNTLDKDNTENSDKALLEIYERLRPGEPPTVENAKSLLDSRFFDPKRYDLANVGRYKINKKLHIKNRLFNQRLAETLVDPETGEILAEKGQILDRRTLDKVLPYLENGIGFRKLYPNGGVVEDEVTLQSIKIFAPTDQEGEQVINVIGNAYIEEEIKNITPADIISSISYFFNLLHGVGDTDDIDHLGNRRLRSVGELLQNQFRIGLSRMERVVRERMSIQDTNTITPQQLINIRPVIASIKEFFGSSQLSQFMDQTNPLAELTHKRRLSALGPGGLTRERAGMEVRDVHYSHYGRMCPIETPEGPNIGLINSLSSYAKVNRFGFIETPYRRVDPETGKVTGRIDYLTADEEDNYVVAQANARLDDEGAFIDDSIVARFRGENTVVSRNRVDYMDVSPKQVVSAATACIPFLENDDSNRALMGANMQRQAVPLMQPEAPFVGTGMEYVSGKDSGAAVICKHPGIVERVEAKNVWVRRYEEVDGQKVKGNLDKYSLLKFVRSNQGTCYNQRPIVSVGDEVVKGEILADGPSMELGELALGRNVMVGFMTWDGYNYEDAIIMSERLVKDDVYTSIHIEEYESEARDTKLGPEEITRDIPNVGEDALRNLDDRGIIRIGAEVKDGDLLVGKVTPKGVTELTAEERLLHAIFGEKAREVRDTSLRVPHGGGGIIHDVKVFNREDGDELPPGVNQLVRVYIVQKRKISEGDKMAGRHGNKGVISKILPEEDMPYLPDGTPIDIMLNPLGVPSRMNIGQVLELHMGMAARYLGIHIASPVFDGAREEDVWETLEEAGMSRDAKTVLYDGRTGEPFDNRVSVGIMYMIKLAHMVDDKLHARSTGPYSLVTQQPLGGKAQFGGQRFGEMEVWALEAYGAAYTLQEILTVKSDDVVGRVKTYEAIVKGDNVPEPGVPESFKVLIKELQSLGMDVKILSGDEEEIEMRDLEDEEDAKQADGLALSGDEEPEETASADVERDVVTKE
Procedure: as §1, §2

T1 sequence (O35011 whole entry): as the sequence (O35011 whole entry, further chain) above
T1 sequence (P20429 whole entry, further chain): as the sequence (P20429 whole entry, further chain) above
T1 sequence (P37870 whole entry): as the sequence (P37870 whole entry) above
T1 sequence (P37871 whole entry): as the sequence (P37871 whole entry) above

CNC(=O)[C@@H](C)[C@H]1C(=O)/C(=C(O)/C=C/C(C)=C/[C@@H](C)[C@H]2O[C@@]3(C)O[C@H](C=C[C@@]34CO4)[C@@H]2C)C(=O)N1[C@@H]1CC[C@H](O)[C@H](C)O1 [Streptolydigin]
Reporter enzyme activities (β-galactosidase and β-glucuronidase) [1]: only the reporter enzyme driven by the T7 RNAP (β-glucuronidase) was active | Expression of the T7 RNAP-dependent control reporter [2]: increased | Expression of the test reporter, xyl-lacZ ([3]; strain PL37, FIG. 6): reduced drastically | RES:MUG ratio compared with the no antibiotic control (DMSO) ([3]; strain PL37, Table 2, FIG. 7): greater than that of the no antibiotic control (DMSO) at several concentrations | Detection as specific inhibitor of RNA polymerase ([3]; strain PL37, antibiotic panel): detected as specific inhibitors of RNA polymerase | Ratio of the control reporter (RES): test reporter (MUG) ([3]; Dilution Number 1 (highest concentration tested: 128, 16 or 0.5 μg/ml depending on antibiotic)): 16.44 | Ratio of the control reporter (RES): test reporter (MUG) ([3]; Dilution Number 2): 16.68 | Ratio of the control reporter (RES): test reporter (MUG) ([3]; Dilution Number 3): 14.07 | Ratio of the control reporter (RES): test reporter (MUG) ([3]; Dilution Number 4): 10.22 | Ratio of the control reporter (RES): test reporter (MUG) ([3]; Dilution Number 5): 4.88 | Ratio of the control reporter (RES): test reporter (MUG) ([3]; Dilution Number 6): 2.53 | Ratio of the control reporter (RES): test reporter (MUG) ([3]; Dilution Number 7): 1.74 | Ratio of the control reporter (RES): test reporter (MUG) ([3]; Dilution Number 8): 1.41 | Ratio of the control reporter (RES): test reporter (MUG) ([3]; Dilution Number 9): 1.27 | Ratio of the control reporter (RES): test reporter (MUG) ([3]; Dilution Number 10): 1.23 | Ratio of the control reporter (RES): test reporter (MUG) ([3]; Dilution Number 11 (lowest concentration tested: 0.125, 0.016 or 0.0005 μg/ml depending on antibiotic)): 1.16
